Series [1] can be described thus: method code SF-RC, from DOI: 10.1016/0969-8051(94)00118-4, PMID: 7550031. The note with it: pH 7.4.
The nature of series [2]: method code SF-HPLC, from DOI: 10.1016/j.ejps.2016.07.010, PMID: 27422078. The note with it: pH 7.4.
The nature of series [3]: method code SF, from DOI: 10.1016/j.ejpb.2011.02.007, PMID: 21329757.
Series [4] in a line: method code G-HPLC, from DOI: 10.1016/s0045-6535(97)00024-6.
Series [5] in a line: method code SF-RC, from DOI: 10.1016/0378-5173(86)90124-9.
The nature of series [6]: method code SF, from DOI: 10.1021/jm5017544, PMID: 25671691. The following applies: pH 7.4.
Series [7] in a line: method code SF-AS, from PMID: 17296250. The following applies: pH 7.2.
A short description of series [8]: method code SF-RC, from DOI: 10.1002/jlcr.3404, PMID: 27126914. The note with it: pH 7.4.
Series [9] in a line: method code SF, from DOI: 10.1016/j.ejmech.2008.03.040, PMID: 18511157. The note with it: pH 7.4.
Series [10] is described as follows: method code SF, from DOI: 10.1016/j.bmcl.2013.12.011, PMID: 24342238.
A short description of series [11]: method code SF-HPLC, from DOI: 10.1016/j.ejpb.2012.03.006, PMID: 22469554.
Series [12] can be described thus: method code SF-HPLC, from DOI: 10.1021/jf0483669, PMID: 15913295. The note with it: pH 7.4.
The nature of series [13]: method code SF-AS, from PMID: 474167.
The nature of series [14]: method code SF, from Huang, J.; Leng, X. (1993). Interaction of rat hepatocyte and cytochrome P 450 with pyrethroids in vitro. Dong Wu Xue Bao, 39(4)418-423.
A short description of series [15]: method code SF-AS, from DOI: 10.1248/cpb.26.2832.
Assay in series [16]: not given
This is another data set of the same source.

Assay in series [17]: not given
The source holds these as a separate data set.

A short description of series [18]: method code SF-HPLC, from DOI: 10.1023/a:1015837931256, PMID: 1788153. The following applies: pH 7.4.
Assay in series [19]: not given
This is another data set of the same source.

Assay in series [20]: not given
This is another data set of the same source.

The nature of series [21]: method code SF, from DOI: 10.1021/jm4003632, PMID: 23662903. The following applies: pH 7.4.
A short description of series [22]: method code SF-AS, from DOI: 10.1016/s0021-9673(03)00617-4, PMID: 12830921.
Series [23] is described as follows: method code RP-TLC, from DOI: 10.1016/s0021-9673(03)00617-4, PMID: 12830921.
A short description of series [24]: method code SF, from Zhang, H, Oberg. B.; Liu, X.; Fan, Z.; Jia, J.; et, a. (2008). Octanol/water partition coefficient determination of novel fungicide SYP-3343 by flask-shaking method using HPLC. Journal of Safety and …. The following applies: pH 5.0.
Series [25] in a line: method code SF, from DOI: 10.1023/a:1015958526423, PMID: 2095573.
Series [26] is described as follows: method code SF, from DOI: 10.1021/jm0201114, PMID: 12238930. The following applies: pH 7.4.
The nature of series [27]: method code SF-RC, from DOI: 10.1016/j.nucmedbio.2011.10.019, PMID: 22226022. The following applies: pH 7.4.
Assay in series [28]: not given
This is another data set of the same source.

Series [29] can be described thus: method code SF, from DOI: 10.1002/cmdc.201000013, PMID: 20373323. The note with it: pH 7.4.
Assay in series [30]: not given
The source holds these as a separate data set.

Series [31] can be described thus: method code SF-RC, from DOI: 10.1016/j.nucmedbio.2006.10.003, PMID: 17210465. The following applies: pH 7.4.
Assay in series [32]: not given
This is another data set of the same source.

Series [33] in a line: method code SF-HPLC, from DOI: 10.1002/ps.2780290114.
Series [34] can be described thus: method code SF, from DOI: 10.1021/bi00418a003, PMID: 3196678.

Compound `COc1cc2c(cc1OC)C1CC(O)(C=CI)C(CC(C)C)CN1CC2` (stereo not given) came in with a logD in series [1] of 3.24.
In [2], `Cc1cc(=O)c2c(O)cc(O)c(C3CCN(C)CC3OC(=O)C(C)(C)C)c2o1` (stereo not given) returned a logD of 1.66.
Turning to `C#C[C@]1(O)CC[C@H]2[C@@H]3CCC4=Cc5oncc5C[C@]4(C)[C@H]3CC[C@@]21C`, the logP in [3] worked out at 4.21.
Compound `O=C(NC1CCCCCCC1)NS(=O)(=O)c1cnccc1Nc1cccc(C(F)(F)F)c1` had a logP of 2.29.
Regarding `c1ccc2nc3c4ccccc4c4ccccc4c3cc2c1`, the logP in series [4] amounted to 5.66.
Turning to `CCCCC[C@H](O)/C=C/[C@@H]1[C@@H](C/C=C\CCCC(=O)OC)[C@@H](O)C[C@H]1O`, the log partition coefficient (logP) in [5] was determined as 3.07.
With `CN(C)c1ccc(N=Nc2nc3ccc(OCCOCCOCCF)cc3s2)cc1`, the logD in series [6] stood at 2.05.
In turn, `CC(C=CC1=C(C)CCC1(C)C)=CC=CC(C)=CC=NNC(N)=S` gave a logD in [7] of 1.05.
In turn, `Cn1cc(C2=C(c3coc4ccccc34)C(=O)NC2=O)c2cc(I)ccc21` displayed a log distribution coefficient (logD) in series [8] of 3.18.
Regarding `N#Cc1c(C(=O)NC2CCCCC2)nn(-c2ccc(Cl)cc2Cl)c1-c1ccc(I)cc1`, the logD in series [9] came out at 3.9.
Consider `COc1cc(C=CC(O)=CC(=O)C=Cc2ccc(O)c(N(C)C)c2)ccc1O`, for which the lipophilicity (logP) in series [10] is 3.65.
`O=C(CCCCCCCC(=O)Oc1ccc(O)cc1)Oc1ccc(O)cc1` gave a logP in series [11] of 4.99.
On to `O=c1c(-c2ccc(O)cc2)coc2cc(O[C@@H]3O[C@H](CO)[C@@H](O)[C@H](O)[C@H]3O)cc(O)c12`, for which the log distribution coefficient (logD) in [12] is 0.97.
In the case of `CC(=O)[C@@]1(O)CC[C@H]2[C@@H]3CCC4=CC(=O)CC[C@]4(C)[C@H]3CC[C@@]21C`, the logP in series [13] came to 3.19.
Compound `CC1(C)C(C(=O)OC(C#N)c2cccc(Oc3ccccc3)c2)C1(C)C` (stereo not given) registered a logP in [14] of 5.5.
`CC(=O)[C@H]1CC[C@H]2[C@@H]3CCC4=CC(=O)CC[C@]4(C)[C@H]3C(O)C[C@]12C` (stereo not given in full): in series [15], the logP amounted to 2.36.
Regarding `O=C(CN1C(=O)c2ccccc2C1=O)N1CCN(Cc2ccc(I)cc2)CC1`, in series [16], the logP came out at 3.6.
As to `CC(C)c1nc(N(C)S(C)(=O)=O)nc(-c2ccc(F)cc2)c1/C=C\C(O)CC(O)CC(=O)O` (stereo not given), the logP in series [17] came to 2.4.
As for `Nc1nc2c(ncn2COCCOC(=O)c2ccc(CN3CCOCC3)cc2)c(=O)[nH]1`, the log distribution coefficient (logD) in [18] is -0.05.
In series [19], `CC[C@H](C)[C@H](N)C(=O)N[C@@H](CC(C)C)C1(c2ccc(Cl)cc2)CCC1` registered a logP of 4.75.
`CCCCCCN1C(=O)NC(c2ccccc2)(c2ccccc2)C1=O` showed a logP in series [20] of 4.39.
For the compound `CC(C)n1ncnc1-c1nc2c(s1)CCOc1cc(-c3cnn(CCO)c3)ccc1-2`, the logD in series [21] was determined as 3.9.
`CCC12CCCN3CCc4c(n(c5ccccc45)C(O)(C(=O)OC)C1)C32` (stereo not given) returned a lipophilicity (logP) in series [22] of 2.96.
In series [23], `CCOC(=O)C1=C[C@]2(CC)CCCN3CCc4c(n1c1ccccc41)[C@@H]32` gave a logP of 4.23.
`CO/C=C(/C(=O)OC)c1ccccc1COc1cc(C)nn1-c1ccc(Cl)cc1` yielded a logD in series [24] of 4.37.
In turn, `COc1cc(C)c(/C=C/C(C)=C/C=C/C(C)=C/C(=O)O)c(C)c1C` showed a log partition coefficient (logP) in [25] of 6.4.
Compound `COc1cc2ncnc(N3CCN(C(=S)NCCc4ccco4)CC3)c2cc1OC` showed a logD in [26] of 2.75.
In series [27], `CCCCOc1c(OC)ccc2cc(C(=O)NCc3ccc(F)cc3)c(=O)[nH]c12` showed a logD of 4.4.
Take `COc1cc2c(cc1OC)C1Cc3ccc(OC)c(OC)c3CN1CC2` (stereo not given): the lipophilicity (logP) in [28] came to 2.6.
`O=C1NC(=O)C(c2ccc(Oc3ccccc3)cc2)(N2CCN(CCF)CC2)C(=O)N1`: in series [29], the pH-dependent lipophilicity (logD) is 2.15.
As for `CCN(CC)C(=O)Cc1c(-c2ccc(OC)cc2)nn2c(C)cc(C)nc12`, the log partition coefficient (logP) in series [30] was 2.44.
For the compound `CN(C)c1ccc(C=Cc2ccc(OCCOCCOCCF)cc2)cc1`, the logD in series [31] was found to be 2.41.
As for `O=C(O)c1[nH]c2cc(Cl)cc(Cl)c2c1CN1CC(=O)N(c2cccc(OCCF)c2)C1=O`, the logP in [32] was 2.16.
`CCCCS/C(=N\c1cccnc1)SCc1ccc(C(C)(C)C)cc1` gave a logP in series [33] of 7.
In [34], `C[C@]12CC[C@@H]3c4ccc(CCCO)cc4CC[C@H]3[C@@H]1CC[C@@H]2O` displayed a logP of 2.7.

These data come from the SangsterLogP compilation.
